Measurements from patent US20040014676A1, “SRC kinase inhibitors useful for treating osteoporosis” (priority 2001, published 2004).

What follows are compounds tested against T1, Src kinase (Homo sapiens, UniProt P12931) (assay: Phosphorylation assay of Src kinase inhibitors (radiometric, 96 well filter plate)). Conditions: duplicates, tested in the range of 400-0.098 µM; 10 µM peptide substrate (FIYGAFKKKKNH2), 5 µM unlabeled ATP, room temperature 30 min; read-out: IC50.
T1 construct: purchased Upstate Bioteolnology (sic; Upstate Biotechnology); later HMR stock 27597-019E1 #14-117
T1 sequence (P12931 whole entry): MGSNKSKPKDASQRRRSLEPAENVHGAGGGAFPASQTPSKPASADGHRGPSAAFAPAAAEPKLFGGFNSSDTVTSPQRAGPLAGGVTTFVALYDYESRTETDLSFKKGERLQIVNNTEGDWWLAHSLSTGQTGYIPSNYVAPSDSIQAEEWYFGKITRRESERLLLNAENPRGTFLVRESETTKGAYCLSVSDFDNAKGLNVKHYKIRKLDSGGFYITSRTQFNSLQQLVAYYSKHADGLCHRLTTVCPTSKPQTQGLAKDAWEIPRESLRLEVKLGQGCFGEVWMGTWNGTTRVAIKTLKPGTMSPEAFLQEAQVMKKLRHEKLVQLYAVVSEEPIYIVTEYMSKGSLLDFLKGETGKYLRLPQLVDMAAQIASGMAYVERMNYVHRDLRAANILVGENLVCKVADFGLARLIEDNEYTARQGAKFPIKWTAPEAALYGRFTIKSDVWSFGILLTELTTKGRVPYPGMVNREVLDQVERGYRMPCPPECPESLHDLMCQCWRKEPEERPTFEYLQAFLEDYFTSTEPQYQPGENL
Type: biochemical
Experimental: The present invention provides novel compounds of Formulae I through XVIII discussed above. The following compounds which fall within Formulae I through XVIII are characterized by structure, IUPAC name and activity using phosphorylation assay for protein tyrosine Src kinase.
Phosphorylation Assay of Src Kinase Inhibitors
The activity of Src kinase was measured in a 96 well plate phosphorylation assay where the transfer of gamma phosphate from ATP to peptide substrate was measured radiometrically. […] Ki values were determined experimentally for some of the inhibitors. The phosphocellulose filter plates (Millipore catalog #MAPH NOB) were prewet prior to the phosphorylation assay by addition of 100 1 per well of 30 mM MES buffer+0.4 mg/ml BSA. After a 20-minute incubation, the buffer was removed completely via a Millipore vacuum manifold. The phosphorylation assay was then set up in the filter plates in a total volume per well of 60 1. The 60 1 consisted of compound (see concentration ranges above), a 1:100 dilution of Src kinase (originally Upstate Bioteolnology, #14-117; later HMR stock 27597-019E1) or assay buffer alone (for no enzyme control wells), 10 M peptide substrate (FIYGAFKKKKNH2), 5 M unlabeled ATP and a 1:500 dilution of P-ATP (New England Nuclear, catalog #NEG-602H, 2000 Ci/mmol). The reaction was mixed and incubated at room temperature for 30 min. The kinase reactions were stopped by addition of 150 mM H3PO4 and incubated for 10 minutes. The filter plate wells were filtered and washed seven times with 200 1 per well of 150 mM H3PO4. Finally, the filter plate was placed into a Packard plate adapter (Packard catalog #600517B), 35 1 of Microscint-20 (Packard catalog #6013621) was added to each well, the plate was sealed (TopSeal A sealers; Packard catalog #6005185) and counted on a Packard TopCount.

Compound	IC50
NC(=O)CNC(=O)c1cc2ccccc2cc1OCCCCNC(=O)[C@@H](N)Cc1ccc(Cl)cc1 [Example 42, 3-[[4-[(2(S)-AMINO-3-(4-CHLORO- PHENYL)-1-OXO)PROPYL]AMINO]- BUTOXY]-NAPHTHALENE-2- (N-ACETAMIDO)CARBOXAMIDE]	0.88 µM
NC(=O)CNC(=O)c1cc2ccccc2cc1OCCCCNC(=O)[C@@H](N)Cc1c(F)c(F)c(F)c(F)c1F [Example 43, 3-[[4-[[2(S)-AMINO-3-(2,3,4,5,6- PENTAFLUORO)PHENYL-1-OXO]- PROPYL]AMINO]BUTOXY]- NAPHTHALENE-2- (N-ACETAMIDO)CARBOXAMIDE]	1.38 µM
NC(=O)CNC(=O)c1cc2ccccc2cc1OCCCCNC(=O)[C@@H](N)Cc1csc2ccccc12 [Example 44, 3-[[4-[[2(S)-AMINO-3(BENZOTHIOPHEN- 3-YL)-1-OXO]PROPYL]AMINO]- BUTOXY]-NAPHTHALENE-2- (N-ACETAMIDO)CARBOXAMIDE]	0.23 µM
NC(=O)CNC(=O)c1cc2ccccc2cc1OCCCCNC(=O)[C@@H](N)Cc1ccc([N+](=O)[O-])cc1 [Example 45, 3-[[4-[[2(S)-AMINO-3(4-NITROPHENYL)- 1-OXO]PROPYL]AMINO]BUTOXY]- NAPHTHALENE-2-(N-ACETAMIDO)- CARBOXAMIDE]	1.47 µM
NC(=O)CNC(=O)c1cc2ccccc2cc1OCCCCNC(=O)[C@@H](N)Cc1ccc(O)c(I)c1 [Example 46, 3-[[4-[[2(S)-AMINO-3(3-IODO-4- HYDROXYPHENYL)-1-OXO]PROPYL]- AMINO]BUTOXY]-NAPHTHALENE-2- (N-ACETAMIDO)CARBOXAMIDE]	0.31 µM
NC(=O)CNC(=O)c1cc2ccccc2cc1OCCCCNC(=O)[C@@H](N)Cc1ccccn1 [Example 47, 3-[[4-[[2(S)-AMINO-3(PYRIDIN-2-YL)-1- OXO]PROPYL]AMINO]BUTOXY]- NAPHTHALENE-2-(N-ACETAMIDO)- CARBOXAMIDE]	17 µM
NC(=O)CNC(=O)c1cc2ccccc2cc1OCCCCNC(=O)[C@@H](N)Cc1cccnc1 [Example 48, 3-[[4-[[2(S)-AMINO-3-(PYRIDIN-3-YL)-1- OXO]PROPYL]AMINO]BUTOXY]- NAPHTHALENE-2-(N-ACETAMIDO)- CARBOXAMIDE]	9.6 µM
NC(=O)CNC(=O)c1cc2ccccc2cc1OCCCCNC(=O)[C@@H](N)CC1CCCCC1 [Example 49, 3-[[4-[[2(S)-AMINO-3(CYCLOHEXYL)-1- OXO]PROPYL]AMINO]BUTOXY]- NAPHTHALENE-2-(N-ACETAMIDO)- CARBOXAMIDE]	0.92 µM
NC(=O)CNC(=O)c1cc2ccccc2cc1OCCCCNC(=O)[C@@H](N)C1CCCCC1 [Example 50, 3-[[[4-(2(S)-AMINO-2-CYCLOHEXYL-1- OXO)ETHYL]AMINO]BUTOXY]- NAPHTHALENE-2-(N-ACETAMIDO)- CARBOXAMIDE]	2 µM
NC(=O)CNC(=O)c1cc2ccccc2cc1OCCCCNC(=O)[C@@H](N)Cc1csc2ccccc12 [Example 51, 3-[[4-[[2(S)-AMINO-3-(BENZO- THIOPHEN-3-YL)-1-OXO]PROPYL]- AMINO]BUTOXY]-NAPHTHALENE-2- (N-ACETAMIDO)CARBOXAMIDE]	0.1 µM
NC(=O)CNC(=O)c1cc2ccccc2cc1OCCCCNC(=O)C(N)C1Cc2ccccc2C1 (centres unmarked) [Example 52, 3-[4-[N-[1-OXO-2-AMINO-2-(INDAN-2- YL)]ETHYL]-AMINOBUTOXY]- NAPHTHALENE-2-(N-ACETAMIDO)- CARBOXAMIDE]	1.56 µM
NC(=O)CNC(=O)c1cc2ccccc2cc1OCCCCNC(=O)[C@H](N)Cc1ccccc1 [Example 53, 3-[4-[[[2(R)-AMINO-3-PHENYL-1- OXO]PROPYL]AMINO]BUTOXY]- NAPHTHALENE-2-(N-ACETAMIDO)- CARBOXAMIDE]	1.4 µM
NC(=O)CNC(=O)c1cc2ccccc2cc1OCCCCNC(=O)[C@@H](N)Cc1ccc(O)c([N+](=O)[O-])c1 [Example 54, 3-[4-[[[2(S)-AMINO-3-(3-NITRO-4- HYDROXY)PHENYL-1-OXO]PROPYL]- AMINO]BUTOXY]-NAPHTHALENE-2- (N-ACETAMIDO)CARBOXAMIDE]	0.66 µM
NC(=O)CNC(=O)c1cc2ccccc2cc1OCCCCNC(=O)[C@@H](N)Cc1cccs1 [Example 55, 3-[4-[[[2(S)-AMINO-3-(THIOPHEN-2-YL)- 1-OXO]PROPYL]AMINO]BUTOXY]- NAPHTHALENE-2-(N-ACETAMIDO)- CARBOXAMIDE]	1.35 µM
NC(=O)CNC(=O)c1cc2ccccc2cc1OCCCCNC(=O)[C@H](N)Cc1ccc(O)cc1 [Example 56, 3-[4-[[[2(R)-AMINO-3-(4-HYDROXY- PHENYL-1-OXO]PROPYL]AMINO]- BUTOXY]-NAPHTHALENE-2-(N- ACETAMIDO)CARBOXAMIDE]	50 µM
NC(=O)CNC(=O)c1cc2ccccc2cc1OCCCCNC(=O)[C@@H](N)Cc1cccc2ccccc12 [Example 57, 3-[4-[[[2(S)-AMINO-3-(NAPHTH-1-YL)-1- OXO]PROPYL]AMINO]BUTOXY]- NAPHTHALENE-2-(N-ACETAMIDO)- CARBOXAMIDE]	0.37 µM
NC(=O)CNC(=O)c1cc2ccccc2cc1OCCCCNC(=O)[C@@H](N)Cc1cccc(F)c1 [Example 59, 3-[4-[[[2(S)-AMINO-3-(3-FLUORO- PHENYL)-1-OXO]PROPYL]AMINO]- BUTOXY]-NAPHTHALENE-2-(N- ACETAMIDO)CARBOXAMIDE]	0.49 µM
CC(c1ccc(Cl)c(Cl)c1)[C@H](N)C(=O)NCCCCOc1cc2ccccc2cc1C(=O)NCC(N)=O (stereo partly drawn) [Example 60, 3-[4-[[[2(S)-AMINO-3(3,4-DICHLORO- PHENYL)-1-OXO]BUTYL]AMINO]- BUTOXY]-NAPHTHALENE-2-(N- ACETAMIDO)CARBOXAMIDE]	1.56 µM
NC(=O)CNC(=O)c1cc2ccccc2cc1OCCCCNC(=O)[C@@H](N)Cc1ccc(Br)cc1 [Example 61, 3-[4-[[[1-OXO-2(S)-AMINO-3(4- BROMOPHENYL)]PROPYL]AMINO]- BUTOXY]-NAPHTHALENE-2-(N- ACETAMIDO)CARBOXAMIDE]	0.5 µM
NC(=O)CNC(=O)c1cc2ccccc2cc1OCCCCNC(=O)[C@@H](N)Cc1ccc(I)cc1 [Example 62, 3-[4-[[[1-OXO-2(S)-AMINO-3(4- IODOPHENYL)]PROPYL]AMINO]- BUTOXY]-NAPHTHALENE-2-(N- ACETAMIDO)CARBOXAMIDE]	6.25 µM
NC(=O)CNC(=O)c1cc2ccccc2cc1OCCCCNC(=O)[C@H](N)CSCc1ccccc1 [Example 63, 3-[4-[[[1-OXO-2(S)-AMINO- 3(BENZYLMERCAPTO)]PROPYL]- AMINO]BUTOXY]-NAPHTHALENE-2- (N-ACETAMIDO)CARBOXAMIDE]	2.23 µM
NCC(=O)NCCCCOc1cc2ccccc2cc1C(=O)NCC(N)=O [Example 64, 3-[4-[[(1-OXO-2-AMINO)ETHYL]- AMINO]BUTOXY]-NAPHTHALENE-2- (N-ACETAMIDO)CARBOXAMIDE]	68 µM
C[C@H](N)C(=O)NCCCCOc1cc2ccccc2cc1C(=O)NCC(N)=O [Example 65, 3-[4-[[(1-OXO-2(S)-AMINO)PROPYL]- AMINO]BUTOXY]-NAPHTHALENE-2- (N-ACETAMIDO)CARBOXAMIDE]	101 µM
CC(C)(C)C(=O)NCCCCOc1cc2ccccc2cc1C(=O)NCC(N)=O [Example 66, 3-[4-[[(1-OXO-2,2-DIMETHYL)PROPYL]- AMINO]BUTOXY]-NAPHTHALENE-2- (N-ACETAMIDO)CARBOXAMIDE]	6 µM
CN[C@@H](Cc1ccccc1)C(=O)NCCCCOc1cc2ccccc2cc1C(=O)NCC(N)=O [Example 67, 3-[4-[[(1-OXO-2(S)-METHYLAMINO-3- PHENYL)PROPYL]AMINO]BUTOXY]- NAPHTHALENE-2-(N-ACETAMIDO)- CARBOXAMIDE]	2.3 µM
CN(C)[C@@H](Cc1ccccc1)C(=O)NCCCCOc1cc2ccccc2cc1C(=O)NCC(N)=O [Example 68]	50 µM
